Measurements taken from publication PMC12948427 (The Journal of Clinical Investigation, 2025).
“And” between values parts separate entries of the source, which are not always exact repeats. Identical values can stand only once. Like-named read-outs stand apart in the source and are kept apart here. Ends that are not written are not given here.

Legend:
hHgs 1-390 protein [1] = target: T1, hHgs 1-390 protein (Homo sapiens, UniProt O14964)
hHgs 1-390 protein [2] = target: T1, hHgs 1-390 protein; assay: biochemical
MHV [3] = tested on: MHV
MHV [4] = tested on: MHV; parameters: species or system C57BL/6JGpt mice; conditions: in vivo

T1 sequence (O14964 1-390): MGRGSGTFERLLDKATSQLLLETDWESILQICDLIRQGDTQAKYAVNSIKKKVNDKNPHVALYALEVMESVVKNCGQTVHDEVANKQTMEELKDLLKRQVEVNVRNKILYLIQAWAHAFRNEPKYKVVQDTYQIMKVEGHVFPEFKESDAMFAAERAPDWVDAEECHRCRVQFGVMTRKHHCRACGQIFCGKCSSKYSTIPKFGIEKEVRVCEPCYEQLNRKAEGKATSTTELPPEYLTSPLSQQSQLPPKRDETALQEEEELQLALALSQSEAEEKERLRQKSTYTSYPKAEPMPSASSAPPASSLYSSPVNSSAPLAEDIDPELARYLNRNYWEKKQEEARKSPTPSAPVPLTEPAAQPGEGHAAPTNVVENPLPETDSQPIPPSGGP

Compound	Polarization (hHgs 1-390 protein [1]; 0.00610352 uM)	Polarization (hHgs 1-390 protein [1]; 0.0244141 uM)	Polarization (hHgs 1-390 protein [1]; 0.0976562 uM)	Polarization (hHgs 1-390 protein [1]; 0.390625 uM)	Polarization (hHgs 1-390 protein [1]; 1.5625 uM)	Polarization (hHgs 1-390 protein [1]; 6.25 uM)	Polarization (hHgs 1-390 protein [1]; 25 uM)	IC50 (hHgs 1-390 protein [2])	cell viability, Figures S9A, B, D-F (17Cl-1 cells; concentration 0.01)	cell viability, Figures S9A, B, D-F (17Cl-1 cells; concentration 0.03)	cell viability, Figures S9A, B, D-F (17Cl-1 cells; concentration 0.1)	cell viability, Figures S9A, B, D-F (17Cl-1 cells; concentration 0.3)	cell viability, Figures S9A, B, D-F (17Cl-1 cells; concentration 1)	cell viability, Figures S9A, B, D-F (17Cl-1 cells; concentration 3)	cell viability, Figures S9A, B, D-F (17Cl-1 cells; concentration 10)	cell viability, Figures S9A, B, D-F (17Cl-1 cells; concentration 25)	viability of infected cells (rescue of cytopathic effect), Figures S9G-L (MHV [3]; concentration 10)	viability of infected cells (rescue of cytopathic effect), Figures S9G-L (MHV [3]; concentration 30)	viability of infected cells (rescue of cytopathic effect), Figures S9G-L (MHV [3]; concentration 100)	viability of infected cells (rescue of cytopathic effect), Figures S9G-L (MHV [3]; concentration 300)	further results
COc1ccc(N)cn1 [5-amino-2-methoxypyridine]	137	154 and 132	127 and 143	133 and 129	103 and 111	88 and 79	61	3410 nM													Polarization (hHgs 1-390 protein [1]; 100 uM): 51 and 48
COc1cc(OC)c2ccc(=O)oc2c1 [Citropten, citropten]	144	145 and 146	135 and 136	119 and 129	75 and 87	26 and 35		2170 nM	100	100	100	100	100	100	100	100 and 98.7013 and 97.6623	49.655 and 47.1823 and 44.4221	48.2749 and 46.3772 and 44.6233	44.4221 and 42.6394 and 45.4572	47.7573 and 43.5308 and 44.5946	viability of infected cells (rescue of cytopathic effect), Figures S9G-L (MHV [3]; concentration 1000): 47.3548 and 44.7384 and 49.3099; viability of infected cells (rescue of cytopathic effect), Figures S9G-L (MHV [3]; concentration 3000): 49.77 and 48.2461 and 50.575; viability of infected cells (rescue of cytopathic effect), Figures S9G-L (MHV [3]; concentration 10000): 55.1466 and 56.7568; viability of infected cells (rescue of cytopathic effect), Figures S9G-L (MHV [3]; concentration 25000): 67.4813 and 66.8775 and 68.0851
CC1=NN(c2ccc(C)c(C)c2)C(=O)/C1=N\Nc1cccc(-c2cccc(C(=O)O)c2)c1O [Eltrombopag, eltrombopag]	143 and 142	147 and 141	143 and 140	145 and 149	107 and 109	80 and 76	89	1520 nM	104.545 and 104.221	100.327 and 102.614 and 102.288	99.1416 and 102.682 and 102.039	104.867 and 102.544 and 103.872	103.708 and 104.035	104.491 and 102.191 and 102.848	96.1957 and 94.8913 and 95.2174	58.804 and 63.1229 and 62.4585	40.6593 and 41.7582 and 41.3919	46.1538 and 47.2527 and 46.5201	46.1538 and 47.619 and 44.6886	42.4908 and 43.956 and 41.7582	viability of infected cells (rescue of cytopathic effect), Figures S9G-L (MHV [3]; concentration 1000): 41.3919 and 43.5897 and 40.6593; viability of infected cells (rescue of cytopathic effect), Figures S9G-L (MHV [3]; concentration 3000): 40.293 and 41.7582; viability of infected cells (rescue of cytopathic effect), Figures S9G-L (MHV [3]; concentration 10000): 45.0549 and 44.3223 and 43.5897; viability of infected cells (rescue of cytopathic effect), Figures S9G-L (MHV [3]; concentration 25000): 23.7729 and 23.8095 and 24.0659
CCOc1ccc2nc3cc(N)ccc3c(N)c2c1 [Ethacridine lactate, ethacridine lactate]	140 and 149	140 and 144	143	137 and 141	134 and 136	102 and 105	73 and 70	7140 nM	101.299 and 101.948 and 102.597	100.98 and 101.961 and 102.614	100.429 and 99.7854 and 102.039	100.553 and 101.217	103.053 and 102.399 and 103.381	103.176 and 101.862 and 103.834	96.1957 and 98.8043	30.7973 and 30.3654 and 31.5947	29.3773 and 29.6337 and 29.1575	34.9451 and 36.63 and 36.4103	33.0403 and 35.0549 and 36.2271	32.8571 and 32.6374 and 34.6886	Polarization (hHgs 1-390 protein [1]; 100 uM): 68 and 66; viability of infected cells (rescue of cytopathic effect), Figures S9G-L (MHV [3]; concentration 1000): 32.4176 and 32.0513 and 35.0916; viability of infected cells (rescue of cytopathic effect), Figures S9G-L (MHV [3]; concentration 3000): 33.0037 and 32.1612 and 34.9817; viability of infected cells (rescue of cytopathic effect), Figures S9G-L (MHV [3]; concentration 10000): 41.7582 and 41.0256 and 40.6593; viability of infected cells (rescue of cytopathic effect), Figures S9G-L (MHV [3]; concentration 25000): 8.462 and 8.5348 and 8.278
GAIRLHGRLIVAGIVLESEQPPRRRQRRKKRG (also: D-retroinverso) [M161-DRI, M161 modified with d-retroinverso (DRI) isoform]																					readout per mouse, Figure S8P (quantity not given) (MHV [4]): 70 and 160 and 190 and 40 and 290 and 100; score per mouse, Figure S8Q (MHV [4]): 1 and 0; lung injury (histology) (MHV [4]; mouse, iv, 15 mg/kg): alleviated; viral gRNA in the lung (MHV [4]; mouse, iv, 15 mg/kg): significantly decreased; virus titer in the lung (plaque assay) (MHV [4]; mouse, iv, 15 mg/kg): significantly decreased
